Activity calls are given as the source filed them. The calls are words filed in the database; no cut-off is given here.
Legend:
Rattus norvegicus [1] = experiment: Antidiabetic activity against STZ-induced diabetic Sprague-Dawley rat model assessed as reduction in fasting blood glucose level at 80 mg/kg, IG administered once daily for 28 days; assay type: functional; parameters: scale not given: the % may be the effect or the level left; settings: time 28 day
Rattus norvegicus [2] = experiment: Antidiabetic activity against 12 hrs fasted STZ-induced diabetic Sprague-Dawley rat model assessed as reduction in AUC of blood glucose at 80 mg/kg, IG administered once daily for 28 days followed by maltose addition after 30 mins post cpd treatment and measured after 30 mins post maltose treatment; assay type: functional; parameters: scale not given: the % may be the effect or the level left
Brain [3] = experiment: Antioxidant activity in rat brain homogenate assessed as inhibition of lipid peroxidation by measuring MDA concentration at 1 uM by TBARS assay relative to control; assay type: functional, tissue-based; parameters: scale not given: the % may be the effect or the level left
[4] = Inhibition of Wistar rat lens ALR2 using D,L-glyceraldehyde as substrate preincubated for 10 mins in presence of NADPH followed by substrate addition and measured after 4 mins; assay type: tissue-based
[5] = Inhibition of Wistar rat kidney ALR1 using sodium D-glucuronate as substrate preincubated for 10 mins in presence of NADPH followed by substrate addition and measured after 4 mins; assay type: tissue-based
[6] = Antioxidant activity assessed as DPPH radical scavenging activity at 100 uM incubated for 30 mins by DPPH assay relative to control; assay type: functional
Rattus norvegicus [7] = organism: Rattus norvegicus; experiment: Selectivity index, ratio of IC50 for Wistar rat kidney ALR1 to IC50 for Wistar rat lens ALR2
[8] = Antioxidant activity assessed as DPPH radical scavenging activity at 50 uM incubated for 30 mins by DPPH assay relative to control; assay type: functional
[9] = Antioxidant activity assessed as DPPH radical scavenging activity at 10 uM incubated for 30 mins by DPPH assay relative to control; assay type: functional
[10] = Antioxidant activity assessed as DPPH radical scavenging activity at 5 uM incubated for 30 mins by DPPH assay relative to control; assay type: functional
[11] = Antioxidant activity assessed as DPPH radical scavenging activity at 1 uM incubated for 30 mins by DPPH assay relative to control; assay type: functional
Brain [12] = experiment: Antioxidant activity in rat brain homogenate assessed as inhibition of lipid peroxidation by measuring MDA concentration at 5 uM by TBARS assay relative to control; assay type: functional, tissue-based; parameters: scale not given: the % may be the effect or the level left
Brain [13] = experiment: Antioxidant activity in rat brain homogenate assessed as inhibition of lipid peroxidation by measuring MDA concentration at 100 uM by TBARS assay relative to control; assay type: functional, tissue-based; parameters: scale not given: the % may be the effect or the level left
Brain [14] = experiment: Antioxidant activity in rat brain homogenate assessed as inhibition of lipid peroxidation by measuring MDA concentration at 50 uM by TBARS assay relative to control; assay type: functional, tissue-based; parameters: scale not given: the % may be the effect or the level left
[15] = Octanol/buffer distribution coefficient, log D of compound at pH 7.4 incubated for 24 hrs by shake flask based HPLC method; assay type: physicochemical
HEK-293T = experiment: Cytotoxicity against HEK293T cells at 15 to 200 micromol/L by MTT assay; assay type: toxicity, cell-based; settings: human, dose 15-200 µmol/L
Rattus norvegicus [16] = experiment: Antidiabetic activity against STZ-induced diabetic Sprague-Dawley rat model assessed as reduction in fasting blood glucose level at 160 mg/kg, IG administered once daily for 28 days; assay type: functional; parameters: scale not given: the % may be the effect or the level left; settings: time 28 day
Rattus norvegicus [17] = experiment: Antidiabetic activity against 12 hrs fasted STZ-induced diabetic Sprague-Dawley rat model assessed as reduction in blood glucose level at 160 mg/kg, IG administered once daily for 28 days followed by glucose addition after 30 mins post cpd treatment and measured after 30 mins post glucose treatment by oral glucose tolerance test; assay type: functional, organism-based; settings: time 673.0 hrs
Rattus norvegicus [18] = experiment: Antidiabetic activity against 12 hrs fasted STZ-induced diabetic Sprague-Dawley rat model assessed as reduction in AUC of blood glucose level at 160 mg/kg, IG administered once daily for 28 days followed by maltose addition after 30 mins post cpd treatment and measured after 30 mins post maltose treatment; assay type: functional; parameters: scale not given: the % may be the effect or the level left; settings: time 673 hrs
Rattus norvegicus [19] = experiment: Antidiabetic activity against STZ-induced diabetic Sprague-Dawley rat model assessed as increase in liver glycogen levels at 160 mg/kg, IG administered once daily for 28 days; assay type: functional; settings: time 28 day
[20] = In vivo inhibition of ALR2 in STZ-induced diabetic Sprague-Dawley rat model assessed as reduction in ALR2 activity in lens at 160 mg/kg, IG administered once daily for 28 days relative to control; assay type: functional; parameters: scale not given: the % may be the effect or the level left; settings: time 28 day
Rattus norvegicus [21] = experiment: Antidiabetic activity against STZ-induced diabetic Sprague-Dawley rat model assessed as reduction in total cholesterol level in serum at 160 mg/kg, IG administered once daily for 28 days relative to control; assay type: functional; parameters: scale not given: the % may be the effect or the level left; settings: time 28 day
Rattus norvegicus [22] = experiment: Antidiabetic activity against STZ-induced diabetic Sprague-Dawley rat model assessed as reduction in triglycerides level in serum at 160 mg/kg, IG administered once daily for 28 days relative to control; assay type: functional; parameters: scale not given: the % may be the effect or the level left; settings: time 28 day
Rattus norvegicus [23] = experiment: Antidiabetic activity against STZ-induced diabetic Sprague-Dawley rat model assessed as reduction in triglycerides level in liver at 160 mg/kg, IG administered once daily for 28 days relative to control; assay type: functional; parameters: scale not given: the % may be the effect or the level left; settings: time 28 day
Brain [24] = experiment: Antioxidant activity in rat brain homogenate assessed as inhibition of lipid peroxidation by measuring MDA concentration at 10 uM relative to control; assay type: functional, tissue-based; parameters: scale not given: the % may be the effect or the level left
[25] = In vivo inhibition of ALR2 in STZ-induced diabetic Sprague-Dawley rat model assessed as reduction in ALR2 activity in lens at 80 mg/kg, IG administered once daily for 28 days relative to control; assay type: functional; parameters: scale not given: the % may be the effect or the level left; settings: time 28 day
[26] = In vivo inhibition of ALR2 in STZ-induced diabetic Sprague-Dawley rat model assessed as reduction in sorbitol accumulation in lens at 160 mg/kg, IG administered once daily for 28 days by colorimetric assay relative to control; assay type: functional; parameters: scale not given: the % may be the effect or the level left; settings: time 28 day
[27] = In vivo inhibition of ALR2 in STZ-induced diabetic Sprague-Dawley rat model assessed as reduction in sorbitol accumulation in lens at 80 mg/kg, IG administered once daily for 28 days by colorimetric assay relative to control; assay type: functional; parameters: scale not given: the % may be the effect or the level left; settings: time 28 day
[28] = In vivo inhibition of ALR2 in STZ-induced diabetic Sprague-Dawley rat model assessed as reduction in sorbitol accumulation in red blood cells at 160 mg/kg, IG administered once daily for 28 days by colorimetric assay relative to control; assay type: functional; parameters: scale not given: the % may be the effect or the level left; settings: time 28 day
[29] = In vivo inhibition of ALR2 in STZ-induced diabetic Sprague-Dawley rat model assessed as reduction in sorbitol accumulation in red blood cells at 80 mg/kg, IG administered once daily for 28 days by colorimetric assay relative to control; assay type: functional; parameters: scale not given: the % may be the effect or the level left; settings: time 28 day
Rattus norvegicus [30] = experiment: Antioxidant activity against STZ-induced diabetic Sprague-Dawley rat model assessed as reduction in SOD level at 160 mg/kg, IG administered once daily for 28 days relative to control; assay type: functional; parameters: scale not given: the % may be the effect or the level left; settings: time 28 day
Rattus norvegicus [31] = experiment: Antioxidant activity against STZ-induced diabetic Sprague-Dawley rat model assessed as reduction in SOD level at 80 mg/kg, IG administered once daily for 28 days relative to control; assay type: functional; parameters: scale not given: the % may be the effect or the level left; settings: time 28 day
Rattus norvegicus [32] = experiment: Antioxidant activity against STZ-induced diabetic Sprague-Dawley rat model assessed as reduction in GSH level at 160 mg/kg, IG administered once daily for 28 days relative to control; assay type: functional; parameters: scale not given: the % may be the effect or the level left; settings: time 28 day
Rattus norvegicus [33] = experiment: Antioxidant activity against STZ-induced diabetic Sprague-Dawley rat model assessed as reduction in GSH level at 80 mg/kg, IG administered once daily for 28 days relative to control; assay type: functional; parameters: scale not given: the % may be the effect or the level left; settings: time 28 day
Rattus norvegicus [34] = experiment: Antioxidant activity against STZ-induced diabetic Sprague-Dawley rat model assessed as reduction in MDA level at 80 to 160 mg/kg, IG administered once daily for 28 days relative to control; assay type: functional, organism-based; settings: dose 80-160 mg/kg, time 28.0 day
Rattus norvegicus [35] = experiment: Antidiabetic activity against STZ-induced diabetic Sprague-Dawley rat model assessed as reduction in total cholesterol level in serum at 80 mg/kg, IG administered once daily for 28 days relative to control; assay type: functional; parameters: scale not given: the % may be the effect or the level left; settings: time 28 day
Rattus norvegicus [36] = experiment: Antidiabetic activity against STZ-induced diabetic Sprague-Dawley rat model assessed as reduction in total cholesterol level in liver at 160 mg/kg, IG administered once daily for 28 days relative to control; assay type: functional; parameters: scale not given: the % may be the effect or the level left; settings: time 28 day
Rattus norvegicus [37] = experiment: Antidiabetic activity against STZ-induced diabetic Sprague-Dawley rat model assessed as reduction in total cholesterol level in liver at 80 mg/kg, IG administered once daily for 28 days relative to control; assay type: functional; parameters: scale not given: the % may be the effect or the level left; settings: time 28 day
Rattus norvegicus [38] = experiment: Antidiabetic activity against STZ-induced diabetic Sprague-Dawley rat model assessed as reduction in triglycerides level in serum at 80 mg/kg, IG administered once daily for 28 days relative to control; assay type: functional; parameters: scale not given: the % may be the effect or the level left; settings: time 28 day
Rattus norvegicus [39] = experiment: Antidiabetic activity against STZ-induced diabetic Sprague-Dawley rat model assessed as reduction in triglycerides level in liver at 80 mg/kg, IG administered once daily for 28 days relative to control; assay type: functional; parameters: scale not given: the % may be the effect or the level left; settings: time 28 day

C[C@H]1O[C@H](O[C@H]2[C@H](O)[C@@H](O)[C@@H](O[C@H]3[C@H](O)[C@@H](O)C(O)O[C@@H]3CO)O[C@@H]2CO)[C@H](O)[C@@H](O)[C@@H]1N[C@H]1C=C(CO)[C@@H](O)[C@H](O)[C@H]1O (stereo partly drawn) [ACARBOSE]
Activity (Rattus norvegicus [1]): 16.2% | Activity (Rattus norvegicus [2]): 22.35%

CC(C)=CCn1c(=O)oc2c(C(=O)/C=C/c3ccc(O)c(O)c3)cccc21
Activity (Brain [3]): 35% | IC50 [4]: 0.149 µM | IC50 [5]: 7.48 µM | Activity [6]: 98% | Ratio IC50 (Rattus norvegicus [7]): 39.7 | Activity [8]: 96% | Activity [9]: 93% | Activity [10]: 90.9% | Activity [11]: 41.2% | Activity (Brain [12]): 52% | Activity (Brain [13]): 97% | Activity (Brain [14]): 90.7% | logD at 24 h [15]: 0.98 | Activity (HEK-293T): Non-Toxic | Activity (Rattus norvegicus [16]): 20.7% | Activity (Rattus norvegicus [17]): Active | Activity (Rattus norvegicus [18]): 21.16% | Activity (Rattus norvegicus [19]): 43.83% | Activity [20]: 47.2% | Activity (Rattus norvegicus [21]): 50.7% | Activity (Rattus norvegicus [22]): 64.3% | Activity (Rattus norvegicus [23]): 32.8% | Activity (Brain [24]): 65.8%

COC(=O)Cn1c(=O)oc2c(C(=O)/C=C/c3ccc(O)c(O)c3)cccc21
Activity (Brain [3]): 35.8% | IC50 [4]: 0.114 µM | IC50 [5]: 6.22 µM | Activity [6]: 97.5% | Ratio IC50 (Rattus norvegicus [7]): 54.6 | Activity [8]: 96.5% | Activity [9]: 94.9% | Activity [10]: 89.4% | Activity [11]: 41.2% | Activity (Brain [12]): 60.5% | Activity (Brain [13]): 97.5% | Activity (Brain [14]): 91.6% | logD at 24 h [15]: 0.86 | Activity (HEK-293T): Non-Toxic | Activity (Rattus norvegicus [16]): 30.4% | Activity (Rattus norvegicus [1]): 20.5% | Activity (Rattus norvegicus [17]): Active | Activity (Rattus norvegicus [19]): 36.58% | Activity [20]: 52.1% | Activity [25]: 60.8% | Activity [26]: 34.1% | Activity [27]: 41.7% | Activity [28]: 64.7% | Activity [29]: 59.7% | Activity (Rattus norvegicus [30]): 81.3% | Activity (Rattus norvegicus [31]): 35.5% | Activity (Rattus norvegicus [32]): 52.3% | Activity (Rattus norvegicus [33]): 26.8% | Activity (Rattus norvegicus [34]): Active | Activity (Rattus norvegicus [21]): 44.1% | Activity (Rattus norvegicus [35]): 46% | Activity (Rattus norvegicus [36]): 3.1% | Activity (Rattus norvegicus [37]): 32.1% | Activity (Rattus norvegicus [22]): 56.5% | Activity (Rattus norvegicus [38]): 44% | Activity (Rattus norvegicus [23]): 33.8% | Activity (Rattus norvegicus [39]): 30.6% | Activity (Brain [24]): 77.5%

Reference: ChEMBL document CHEMBL5143721, “Novel Hydroxychalcone-Based Dual Inhibitors of Aldose Reductase and α-Glucosidase as Potential Therapeutic Agents against Diabetes Mellitus and Its Complications” (J Med Chem, 2022)
